The data set relates to RAW264.7 macrophagocytes.

Method: Besides, we contrastively explored cellular uptakes of BBI, PDP, sBBI and sBBI&PDP into a macrophage cell line RAW264.7 and HCC cell line Hepa1-6. The fluorescence was derived from fluorescein isothiocyanate (FITC), FITC was linked to the amino-terminal of sBBI, and the sBBI with FITC was then combined with PDP to form FITC-sBBI&PDP.
Hepa1-6 cells are seeded in 6-well plates at an appropriate density, approximately 200,000 cells per
well. After cell attachment, 1 mL of drug was labeled with 10 µL of FITC (100:1). Keep away from
light, and co-incubate the drug with the cells for 10 minutes. Digest cells according to normal
procedures. After centrifugation, wash 2-3 times with PBS and resuspend in 150-200 µL PBS for
FACS detection. FITC was incubated with drugs for 30 minutes. Plate with 6 cm confocal laser
dishes, 100,000 cells per well. After cell attachment, FITC-labeled drug was added. Drugs were co-
cultured with cells for 6 h. Cells were washed twice with PBS and cellular uptake observed under a
confocal laser fluorescence microscope.

CHEHEKFEQR-(PEG3)-nyskptdrqyhfrr [PDP]: the Cellular uptake result is “neither BBI nor PDP peptide showed cellular uptakes”.

As for “KFERQKILDSQEQLEHRERSLQT -(Hle)-RDIQRML-(2-Nal)-PC [BBI]”, the Cellular uptake entry is on record as “neither BBI nor PDP peptide showed cellular uptakes”.
